Source: US4590207A, “Therapeutic and/or preventive ophthalmic solution for intraocular hypertension and glaucoma” (Eisai Co., Ltd., priority 1984, dated 1986)

Assays:
[1] = test system: intraocular hypertension of rabbits caused by α-chymotrypsin; experiment: Effect on intraocular hypertension of rabbits caused by α-chymotrypsin (intraocular tension); type: in vivo, male white rabbits; design: Intraocular tension: unit not given here; conditions: for Intraocular tension: 35 μl instilled, mean of five animals ± standard error; for effects of lowering intraocular tension (conclusion): ophthalmic solution containing 5-ISMN or 2-ISMN
Description: Models of intraocular hypertension were prepared by the use of male white rabbits of approximately 2.5 kg in body weight according to the method reported by Sears (cf. Sears, D. and Sears, M., Am. J. Ophthalmol., Vol. 77, No. 3, p. 378 to 383, 1974). A rabbit was anesthetized by intravenously injecting 20 mg/kg of pentobarbital sodium and 2% of lidocaine was instilled in the left eye of the animal to anesthetize locally. A volume of 0.5 ml physiological saline solution was injected into the anterior chamber of the left eye with a needle and subsequently 0.5 ml of α-chymotrypsin 300 NFU/ml was injected into the posterior chamber with another needle while holding the former needle as such. After removing the needle inserted into the posterior chamber, the needle inserted into the anterior chamber was removed. The rabbit experimentally suffering from intraocular hypertension thus prepared was allowed to stand for 25 to 30 days to thereby recover from postoperative keratitis or conjunctivitis and to hold a stable intraocular hypertension. Then it was subjected to the test.
Intraocular tension was determined with a Perkin's Hand Applanation Tonometer (a product of Clement Clark, London) under anesthesia with 2% halothane, having 2 l/min of oxygen, and local anesthesia with 0.4% of benoxil.
Intraocular tension was measured five times and the mean value was recorded.
5-ISMN and 2-ISMN were employed as the test compounds and dissolved in a physiological saline solution.
A volume of 35 μl of each solution was instilled in the left eye treated with α-chymotrypsin. Each solution was administered to five rabbits according to a crossover design.

Solubility in water = type: physicochemical
ddy mice = experiment: Acute toxicity (intravenous), mortality 24 hours after administration; type: in vivo; conditions: for mortality: 24 hours
Description: 500 mg/kg and 1,000 mg/kg of each of isosorbide-5-mononitrate (5-ISMN) and isosorbide-2-mononitrate (2-ISMN) were intravenously injected to ddy mice of approximately 20 g in body weight to observe their toxicity. The mortality was determined 24 hours after the administration.

[2] = 500 mg/kg intravenous, ten animals

Question: With O=[N+]([O-])OC1COC2C(O)COC12 (stereo not drawn) [2-ISMN, isosorbide-2-mononitrate] as the molecule, how does the Intraocular tension ([1]; 0 hr, 3.0% solution) read?
Answer: The Intraocular tension was 31.2 ± 0.6.

Question: What about the Intraocular tension ([1]; 1 hr, 3.0% solution) of the same molecule?
Answer: Its Intraocular tension is 29.0 ± 0.8.

Question: What about the Intraocular tension ([1]; 3 hr, 3.0% solution) of the same molecule?
Answer: Its Intraocular tension is 29.1 ± 0.9.

Question: And the Intraocular tension ([1]; 5 hr, 3.0% solution)?
Answer: The Intraocular tension was 25.1 ± 1.4.

Question: And the Intraocular tension ([1]; 7 hr, 3.0% solution)?
Answer: The Intraocular tension was 24.6 ± 1.4.

Question: And the Intraocular tension ([1]; 9 hr, 3.0% solution)?
Answer: The Intraocular tension was 21.8 ± 1.3.

Question: And the “effect of lowering intraocular tension” value ([1]; dose of 3%)?
Answer: The value was “exhibits an effect of lowering intraocular tension”.

Question: And the “effects of lowering intraocular tension (conclusion)” value [1]?
Answer: The value was “remarkable, continuous effects of lowering intraocular tension”.

Question: And the solubility in water (Solubility in water)?
Answer: The solubility in water was “highly soluble in water”.

Question: What about the symptoms observed (ddy mice; 500 mg/kg and 1,000 mg/kg groups, intravenous) of the same molecule?
Answer: Its symptoms observed is “Slight ataxia”.

Question: And the mortality (ddy mice; [2])?
Answer: Its mortality is “No animal died of the ten animals”.

Question: What about the mortality (ddy mice; 1,000 mg/kg intravenous) of the same molecule?
Answer: The mortality was “No animal died of the ten animals”.

Question: Which Intraocular tension ([1]; 0 hr, 0.3% solution) does the source give for O=[N+]([O-])OC1COC2C(O)COC12 (stereo not drawn) [5-ISMN, isosorbide-5-mononitrate] here?
Answer: Its Intraocular tension is 30.5 ± 0.8.

Question: And the Intraocular tension ([1]; 0 hr, 1.0% solution)?
Answer: The Intraocular tension was 30.2 ± 0.5.

Question: And the Intraocular tension ([1]; 0 hr, 3.0% solution)?
Answer: The Intraocular tension was 30.8 ± 0.8.

Question: What about the Intraocular tension ([1]; 1 hr, 0.3% solution) of the same molecule?
Answer: The Intraocular tension was 21.5 ± 0.5.

Question: What about the Intraocular tension ([1]; 1 hr, 1.0% solution) of the same molecule?
Answer: The Intraocular tension was 22.0 ± 1.9.

Question: What about the Intraocular tension ([1]; 1 hr, 3.0% solution) of the same molecule?
Answer: The Intraocular tension was 20.3 ± 0.9.

Question: And the Intraocular tension ([1]; 3 hr, 0.3% solution)?
Answer: The Intraocular tension was 20.1 ± 0.9.

Question: What about the Intraocular tension ([1]; 3 hr, 1.0% solution) of the same molecule?
Answer: Its Intraocular tension is 19.1 ± 0.6.

Question: And the Intraocular tension ([1]; 3 hr, 3.0% solution)?
Answer: Its Intraocular tension is 16.4 ± 0.5.

Question: What about the Intraocular tension ([1]; 5 hr, 0.3% solution) of the same molecule?
Answer: The Intraocular tension was 19.8 ± 1.2.

Question: What about the Intraocular tension ([1]; 5 hr, 1.0% solution) of the same molecule?
Answer: The Intraocular tension was 18.6 ± 0.9.

Question: And the Intraocular tension ([1]; 5 hr, 3.0% solution)?
Answer: Its Intraocular tension is 15.7 ± 0.5.

Question: What about the Intraocular tension ([1]; 7 hr, 0.3% solution) of the same molecule?
Answer: The Intraocular tension was 20.5 ± 0.7.

Question: What about the Intraocular tension ([1]; 7 hr, 1.0% solution) of the same molecule?
Answer: The Intraocular tension was 18.5 ± 1.0.

Question: And the Intraocular tension ([1]; 7 hr, 3.0% solution)?
Answer: Its Intraocular tension is 16.2 ± 1.8.

Question: And the Intraocular tension ([1]; 9 hr, 0.3% solution)?
Answer: Its Intraocular tension is 19.6 ± 1.8.

Question: And the Intraocular tension ([1]; 9 hr, 1.0% solution)?
Answer: Its Intraocular tension is 19.8 ± 1.3.

Question: And the Intraocular tension ([1]; 9 hr, 3.0% solution)?
Answer: The Intraocular tension was 16.2 ± 2.2.

Question: What about the “dose dependence of effect of lowering intraocular tension” value ([1]; dose of 0.3 to 3%) of the same molecule?
Answer: The value was “would depend on the dose”.

Question: What about the “duration of effect of lowering intraocular tension” value ([1]; dose of 0.3 to 3%) of the same molecule?
Answer: Its value is “at least nine”.

Question: What about the “effect of lowering intraocular tension” value ([1]; dose of 0.3 to 3%) of the same molecule?
Answer: Its value is “remarkable effect of lowering intraocular tension”.

Question: And the “effects of lowering intraocular tension (conclusion)” value [1]?
Answer: Its value is “remarkable, continuous effects of lowering intraocular tension”.

Question: And the solubility in water (Solubility in water)?
Answer: The solubility in water was “highly soluble in water”.

Question: What about the symptoms observed (ddy mice; 500 mg/kg intravenous) of the same molecule?
Answer: The symptoms observed was “Slight ataxia and restlessness”.

Question: What about the “time to disappearance of symptoms (ataxia and restlessness)” value (ddy mice; 500 mg/kg intravenous) of the same molecule?
Answer: The value was ≤ 30 min.

Question: What about the mortality (ddy mice; [2]) of the same molecule?
Answer: Its mortality is “No animal died of the ten animals”.

Question: And the mortality (ddy mice; 1,000 mg/kg intravenous)?
Answer: The mortality was “no animal died”.
